Key:
GRP78 = biological target: T1, GRP78 (Homo sapiens, UniProt P11021); assay: ATPase activity (ATP-lite luminescence) of immunoprecipitated GRP78 on Sepharose beads; assay type: biochemical
T1 construct: gene HSPA5; GRP78 expressed from a plasmid in GBM12 cells, immuno-precipitated with an antibody to the COOH terminal portion

HSP90 = biological target: T2, HSP90; assay: ATPase activity (ATP-lite luminescence) of immunoprecipitated FLAG-HSP90 on Sepharose beads; assay type: biochemical
T2 construct: FLAG-tagged HSP90 expressed in GBM12 cells, immuno-precipitated by its tag
From the text: ATPase activity (ATP-lite luminescence) of immunoprecipitated FLAG-HSP90 on Sepharose beads on HSP90 | In a dose-dependent fashion AR12 inhibited the ATPase activities of HSP90, HSP70 and GRP78

T1 sequence (P11021 19-654): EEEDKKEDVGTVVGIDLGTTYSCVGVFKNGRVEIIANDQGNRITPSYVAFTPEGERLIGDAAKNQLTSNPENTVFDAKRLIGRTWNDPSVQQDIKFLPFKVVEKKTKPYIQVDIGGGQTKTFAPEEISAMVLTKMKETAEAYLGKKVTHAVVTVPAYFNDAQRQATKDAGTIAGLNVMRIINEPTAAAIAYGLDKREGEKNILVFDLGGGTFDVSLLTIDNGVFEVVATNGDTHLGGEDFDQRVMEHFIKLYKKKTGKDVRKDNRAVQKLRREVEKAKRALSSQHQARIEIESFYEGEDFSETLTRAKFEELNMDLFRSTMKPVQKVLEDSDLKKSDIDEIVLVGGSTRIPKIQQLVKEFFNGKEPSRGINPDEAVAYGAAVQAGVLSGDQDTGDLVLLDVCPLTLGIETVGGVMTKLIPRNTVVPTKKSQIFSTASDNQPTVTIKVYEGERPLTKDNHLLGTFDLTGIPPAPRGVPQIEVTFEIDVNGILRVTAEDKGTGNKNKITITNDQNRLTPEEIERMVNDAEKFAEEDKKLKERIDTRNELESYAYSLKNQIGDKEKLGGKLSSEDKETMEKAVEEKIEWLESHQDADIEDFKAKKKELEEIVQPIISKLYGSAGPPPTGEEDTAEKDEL

## NCC(=O)Nc1ccc(-n2nc(C(F)(F)F)cc2-c2ccc3c(ccc4ccccc43)c2)cc1 [AR12]
GRP78
  IC50: ~80 nM
HSP90
  IC50: ~300 nM

Reference: publication PMC8312464, “Inhibition of heat shock proteins increases autophagosome formation, and reduces the expression of APP, Tau, SOD1 G93A and TDP-43” (Aging (Albany NY), 2021)
